The record followed here is patent publication US12622917B2, “High-activity Wnt pathway inhibitor compound” (ADLAI NORTYE BIOPHARMA CO., LTD., priority 2020, dated 2026).

Bounds are passed on as bounds.

Holding throughout (format): cell-based
Assay [1] deals with Colo205-LUC-TCF/LEF M1 reporter cell line (Wnt pathway). As to the kind of experiment: Colo205-LUC-TCF/LEF M1 reporter gene (luciferase) inhibition. Particulars: 4 hours incubation, luciferase readout. From the text: Colo205 cell line (Cell Bank of Chinese Academy of Sciences, Cat #TCHu102) was purchased from the Cell Bank of Chinese Academy of Sciences. After expansion and subculture, in the exponential growth phase of the cells, transfection with lipo3000 liposome transfection with TCF/LEF transcription factors Driven luciferase reporter plasmid (Promega). […] The plasmid carries a resistance gene for resistance screening. Transfection was carried out in 10 cm culture dishes using conventional complete medium without resistance. After 2 days, the medium with resistance was replaced, and the culture was continued. After that, the resistant medium was replaced every 2 days, and the suspended cells were discarded. The original medium was centrifuged to remove cells and debris and retained as an adaptive medium. When the cells covered the culture dish, the cells were digested, counted, and passaged in a 96-well plate, so that the average number of cells contained in each well was 1.5/well, and the adaptive medium was used for passage. The rest of the cells were frozen. After subculture, culture for 4 hours to allow the cells to adhere to the wall, and then observe the number of cells in each well under a microscope. Wells with only 1 cell per well were labeled as monoclonal wells. Afterwards, normal culture was performed, and the culture medium was replaced every 2 days, and observed. There are holes where the monoclonal cells continue to grow in the early stage, and they are labeled twice, and can be replaced with normal resistant medium. When a monoclonal well was overgrown with a 96-well plate, it is digested and passaged to a 24-well culture plate. After the 24-well plate is overgrown, it is passaged to a 96-well plate and a 6-well plate. The cells in a 96-well plate are at least 6 wells, of which 3 wells were added with known Wnt inhibitors, and the other 3 wells were not treated. After 24 hours, the cells in the 96-well plate were added with a fluorescence detection reagent to detect the fluorescence intensity. Cell lines with fluorescent expression when not treated and decreased fluorescent light after inhibition were selected and further cultured. The Colo205-LUC-TCF/LEF-M1 cell line is one of the cell lines screened above. Its growth curve, cell shape, and cell growth state are similar to those of the original Colo205 cells, and the ratio of the fluorescent signals of the inhibitor-treated and untreated cells is the largest among all cell lines, and the ratio can reach 4-5 times when inhibited at 4 hours, which was completely suitable for the screening of Wnt inhibitors in the later stage.
The Colo205-LUC-TCF/LEF M1 cell line is a reporter tool cell stably transfected with the pGL4.49-LUC2-TCF/LEF vector. The β-catenin Wnt pathway is continuously activated. After adding the inhibitor, the Wnt pathway is inhibited. The expression of firefly luciferase regulated by the[…] cis-element decreased, and after adding the detection substrate, the detected light signal decreased accordingly, so as to detect the inhibitory effect of the compound.
To a 96-well cell culture plate, add 100 uL of the compound with a maximum concentration of 20 uM to each well, and make a 3-fold serial dilution of the compound concentration. Then 10,000 colo205 cells stably transfected with the reporter gene and 100 uL medium were inoculated into each well, and corresponding positive and negative control wells were made at the same time. Put the cells in a 5% CO2 incubator and incubate at 37° C. for 4 hours. After 4 hours, remove the culture medium, add 100 uL of reagent (Promega) containing the corresponding firefly luciferase substrate to each well, and measure the activity of luciferase reporter gene. Luminescence intensity was read with SpectraMax in full wavelength mode. […]

In another assay the test system is RKO. As to the kind of experiment: Proliferation inhibition, non-Wnt mutant control cell line RKO. Particulars: Homo sapiens, Wnt-independent control cell line, 96 hours, read-out: Antiproliferative IC50 RKO. An excerpt:
(§1) The cell lines used in the experiment are Colo205 and DU4475 cell lines whose Wnt pathway is continuously activated and whose proliferation is Wnt pathway-dependent; while the BELA and RKO cell lines, whose Wnt pathway is not activated under normal circumstances and the proliferation is independent of Wnt pathway, as control cell lines. It is Judged that the inhibitory effect of the compound of the present invention on Wnt-dependent proliferation is not caused by other non-specific toxicity.
(§2) Treat the Colo205, Du4475, HELA and RKO cell lines cultured in their respective mediums in the logarithmic growth phase, collect the cells and prepare a uniform cell suspension of known concentration, and then add it to the 96-well cell culture plate Cell suspension, so that each well contains 1000 cells. Put it into a 5% CO2 incubator and incubate at 37° C. for 20-24 h. On the second day, the fully dissolved, 3-fold serially diluted compound was added to each cell culture well, so that the final maximum concentration in the cell culture well was 20 uM, and the culture was continued for 96 hours. In this test, Promega's cell viability detection test is used for detection. The more the cells proliferate, the stronger the final signal intensity will be. The detection instrument is SpectraMax, full wavelength mode. The wells only added with DMSO were used as positive control wells, and the wells that were not inoculated with cells were used as negative control wells. […] The IC50 value of cell proliferation inhibition was used to evaluate the inhibitory effect of the compound on the Wnt pathway and the toxic effect on normal cells (Table 2).

A further assay concerns Colo205. Description: Proliferation inhibition, Wnt mutant cell line Colo205. The following applies: Homo sapiens, COLO 205; Colo205, Wnt pathway-dependent, 96 hours; read-out: Antiproliferative IC50 Colo205.
Description: as §1, §2

Consider `C[C@H]1C(=O)N2CCCc3nc(NCc4cnn(Cc5ccc(C(F)(F)F)nc5)c4)nc(c32)N1C` [Example 1, (S)-4,5-dimethyl-2-(((1-((6-(trifluoromethyl)pyridine-3-yl)methyl)-1H-pyrazol-4-yl)methyl)amino)-4,5,9,10-tetrahydro-6H,8H-pyrido[3,2,1-de]pteridin-6-one], for which, in assay [1], the IC50 was 83 nM. `CCOC[C@H]1C(=O)N2CCCc3nc(NCc4ccc(Oc5cnc(C(F)(F)F)nc5)nc4)nc(c32)N1C` [155 (W347)]: the figures for the 50% inhibitory concentration (IC50) (with RKO; in assay [1]; in the assay with Colo205) were more than 10 µM, 77 nM and 88 nM, respectively. As for `CN1c2nc(NCc3ccc(Oc4cnc(C(F)(F)F)nc4)nc3)nc3c2N(CCC3)C(=O)C12CC2` [175 (W327)], in assay [1], the IC50 is 28 nM. Take `CN1c2nc(NCc3ccc(Oc4ccc(C(F)(F)F)nc4)nc3)nc3c2N(CCC3)C(=O)[C@@H]1C1CCOCC1` [219 (W338)]: the IC50 in the assay on RKO is more than 10 µM; in assay [1], 31 nM; with Colo205, 10 nM. Take `CN1c2nc(NCc3ccc(Oc4cnc(C(F)(F)F)nc4)nc3)nc3c2N(CCC3)C(=O)C12CCOCC2` [217 (W359)]: the IC50 in the assay with RKO is more than 10 µM; in the assay with Colo205 it was 57 nM. Taken in the same sequence, the figures for `CN1c2nc(NCc3ccc(Oc4ccc(C(F)(F)F)nc4)nc3)nc3c2N(CCC3)C(=O)C12CCOC2` (stereo not drawn) [207 (W357)] were more than 10 µM and 84 nM. In assay [1], `FC1(F)C[C@H]2Cn3ccc4nc(NCc5cnn(Cc6ccc(C(F)(F)F)nc6)c5)nc(c43)N2C1` [69 (W50)] came in with an IC50 of 21 nM.

Compound `CN1CC2(CC2)Cn2ccc3nc(NCc4cnn(Cc5ccc(C(F)(F)F)nc5)c4)nc1c32` [76 (W83)] displayed a 50% inhibitory concentration (IC50) in assay [1] of 67 nM. `[2H]C([2H])([2H])n1nc(C(F)(F)F)cc1Oc1ccc(CNc2nc3c4c(n2)N(C)[C@@H](CO)C(=O)N4CCC3)cn1` [241 (W431)]: the 50% inhibitory concentration (IC50) in the assay on RKO was more than 10 µM; in assay [1], 9.3 nM; with Colo205 it was 11.5 nM. For `COCC[C@@H]1C(=O)N2CCCc3nc(NCc4ccc(Oc5ccc(C(F)(F)F)nc5)nc4)nc(c32)N1C` [215 (W391)], the results for the IC50 in the assay with RKO and in the assay with Colo205 were more than 10 µM and 53 nM, respectively. As to `CN1c2nc(NCc3ccc(Oc4cc(C(F)(F)F)nn4C)nc3)nc3c2N(CCC3)C(=O)[C@]1(C)CO` [223 (W403)], the IC50 is more than 10 µM in the assay on RKO, 59 nM in assay [1] and 35 nM in the assay with Colo205. For the compound `[2H]C([2H])([2H])N1c2nc(NCc3ccc(Oc4ccc(C(F)(F)F)nc4)nc3)nc3c2N(CCC3)C(=O)[C@]1(C)CO` [220 (W398)], the IC50 is more than 10 µM in the assay with RKO and 48 nM in the assay with Colo205. In assay [1], `C[C@H]1CN(C)c2nc(NCc3ccc(CCC(F)(F)F)nc3)nc3ccn1c23` [Example 20, (S)-4,6-dimethyl-N-((6-(3,3,3-trifluoropropyl)pyridin-3-yl)methyl)-5,6-dihydro-4H-pyrrole And[3,2,1-de]pteridin-2-amine] displayed an IC50 of 93 nM.

Take `CN1c2nc(NCc3ccc(Oc4cnc(C(F)(F)F)nc4)nc3)nc3c2N(CCC3)C(=O)[C@]12CCOC2` [225 (W407)]: the IC50 in the assay with RKO was more than 10 µM; in the assay on Colo205 it was 57 nM. `C[C@H]1Cn2cc(F)c3nc(NCc4cnn(Cc5ccc(F)cc5)c4)nc(c32)N1C` [64 (W23)]: the IC50 in assay [1] was 41 nM. For `CN1c2nc(NCc3ccc(Oc4ccc(C(F)(F)F)nc4)nc3)nc3c2N(CCC3)C(=O)[C@]1(C)CO` [133 (W377), (S)-5-(hydroxymethyl)-4,5-dimethyl-2-(((6-((6-(trifluoromethyl)pyridin-3-yl)oxo)pyridine-3-yl)methyl)amino)-4,5,9,10-tetrahydro-6H,8H-pyrido[3,2,1-de]pteridin-6-one], the IC50 with RKO is more than 10 µM; in assay [1], 58 nM; in the assay on Colo205, 35 nM. For the compound `COCCC1C(=O)N2CCCc3nc(NCc4ccc(Oc5cnc(C(F)(F)F)nc5)nc4)nc(c32)N1C` (stereo not drawn) [210 (W371)], the IC50 is more than 10 µM in the assay with RKO and 60 nM in the assay with Colo205. On the same counts, the results for `CN1c2nc(NCc3ccc(Oc4cc(C(F)(F)F)nn4C)nc3)nc3c2N(CCC3)C(=O)[C@@H]1CO` [222 (W402)] are more than 10 µM and 61 nM.

For `CN1c2nc(NCc3ccc(Oc4cnc(C(F)(F)F)nc4)nc3)nc3c2N(CCC3)C(=O)[C@@]12CCOC2` [224 (W406)], the figures for the IC50 with RKO and in the assay with Colo205 were more than 10 µM and 63 nM, respectively. Take `C[C@H](O)[C@@]1(C)C(=O)N2CCCc3nc(NCc4ccc(Oc5ccc(C(F)(F)F)nc5)nc4)nc(c32)N1C` [239 (W427)]: the values for the IC50 (in the assay on RKO; in assay [1]; with Colo205) were more than 10 µM, 36 nM and 28.3 nM, respectively.

Consider `[2H]C([2H])([2H])N1c2nc(NCc3ccc(Oc4cnc(C(F)(F)F)nc4)nc3)nc3c2N(CCC3)C(=O)[C@]1(C)CO` [221 (W399)], for which the figures for the concentration for half-maximal inhibition (IC50) with RKO and in the assay with Colo205 were more than 10 µM and 43 nM, respectively.

Take `CN1c2nc(NCc3ccc(Oc4ccc(C(F)(F)F)nc4)nc3)nc3c2N(CCC3)C(=O)[C@]12CCOC2` [209 (W405)]: the IC50 is more than 10 µM in the assay with RKO and 30 nM in the assay with Colo205. On the same counts, the results for `C[C@H]1C(=O)N2CCCc3nc(NCc4ccc(Oc5ccc(C6CC6)nc5)nc4)nc(c32)N1C` [137 (W335), (S)-2-(((6-((6-cyclopropylpyridin-3-yl)oxo)pyridin-3-yl)methyl)amino)-4,5-dimethyl-4,5,9,10-tetrahydro-6H,8H-pyrido[3,2,1-de]pteridin-6-one] are more than 10 µM and 138 nM. For `C[C@H]1Cn2ccc3nc(NCc4cnn(CCc5ccc(F)cc5)c4)nc(c32)N1C` [66 (W43)], in assay [1], it took 11 nM to reach half-maximal inhibition (IC50). Turning to `C[C@H](O)[C@@]1(C)C(=O)N2CCCc3nc(NCc4ccc(Oc5cnc(C(F)(F)F)nc5)nc4)nc(c32)N1C` [240 (W428)], the half-inhibitory concentration (IC50) with RKO is more than 10 µM; in assay [1], 16.6 nM; in the assay on Colo205, 11.1 nM. In the case of `CCn1nc(C(F)(F)F)c(C2CC2)c1Oc1ccc(CNc2nc3c4c(n2)N(C)[C@@](C)(CO)C(=O)N4CCC3)cn1` [233 (W419)], the IC50 in the assay on RKO was more than 10 µM; in the assay with Colo205, 52 nM.

Turning to `CN1c2nc(NCc3ccc(Oc4ccc(C(F)(F)F)nc4)nc3)nc3c2N(CCC3)C(=O)C12CCOCC2` [216 (W352)], the IC50 with RKO was more than 10 µM; in the assay with Colo205 it was 39 nM. In assay [1], `[2H]C([2H])([2H])N1c2nc(NCc3cnn(Cc4ccc(C(F)(F)F)nc4)c3)nc3ccn(c23)C[C@@H]1C` [73 (W85)] yielded an IC50 of 24 nM. With `CN1c2nc(NCc3ccc(Oc4cnc(C(F)(F)F)nc4)nc3)nc3c2N(CCC3)C(=O)[C@]1(C)CO` [140 (W376), (S)-5-(hydroxymethyl)-4,5-dimethyl-2-(((6-((2-(trifluoromethyl)pyrimidin-5-yl)oxo)pyridine-3-Base)methyl)amino)-4,5,9,10-tetrahydro-6H,8H-pyrido[3,2,1-de]pteridin-6-one], the IC50 in the assay with RKO is more than 10 µM; in the assay with Colo205, 49 nM.

What is called IC50 is the point on the concentration scale where inhibition reaches its midpoint.
